Assay results as given in ChEMBL document CHEMBL1148975, “Ancistrobenomine a, the first naphthylisoquinoline oxygenated at Me-3, and related 5,1'-coupled alkaloids, from the "new" plant species ancistrocladusbenomensis” (J Nat Prod, 2004).
Values after ≈ are worked out from the molar mass of the structure shown.

What was measured:
Plasmodium falciparum = experiment: Antiplasmodial activity against Plasmodium falciparum K1; type: functional, organism-based
Trypanosoma cruzi = experiment: Antitrypanosomal activity against Trypanosoma cruzi; type: functional, organism-based
[1] = tested on: Trypanosoma brucei rhodesiense; experiment: Antitrypanosomal activity against Trypanosoma brucei rhodesiense; type: functional, organism-based
Leishmania donovani = experiment: Antileishmanial activity against Leishmania donovani; type: functional, organism-based
L6 = experiment: Cytotoxicity against rat L6 cells; type: cell-based

| Compound | IC50 (Plasmodium falciparum) | IC50 (Trypanosoma cruzi) | IC50 [1] | IC50 (Leishmania donovani) | MIC (L6) |
| --- | --- | --- | --- | --- | --- |
| COc1cc(O)c(-c2c(C)cc(OC)c3c(O)cccc23)c2c1[C@@H](C)N(C)[C@@H](C)C2 | 0.51 µg/mL (≈ 1.25 µM) | 36.4 µg/mL (≈ 89.3 µM) | 2.2 µg/mL (≈ 5.4 µM) | 18.8 µg/mL (≈ 46.1 µM) | 15.5 µg/mL (≈ 38 µM) |
| COc1cccc2c(-c3c(O)cc(OC)c4c(C)nc(CO)cc34)c(C)cc(O)c12 [6-O-DEMETHYLANCISTROBENOMINE A] | 2.18 µg/mL (≈ 5.38 µM) | 23.4 µg/mL (≈ 57.7 µM) | 14.7 µg/mL (≈ 36.3 µM) | > 30 µg/mL | 59.9 µg/mL (≈ 148 µM) |
| COc1cc(OC)c2c(C)nc(CO)cc2c1-c1c(C)cc(O)c2c(OC)cccc12 [ANCISTROBENOMINE A] | 0.76 µg/mL (≈ 1.81 µM) | 4.8 µg/mL (≈ 11.4 µM) | 1.3 µg/mL (≈ 3.1 µM) | > 10 µg/mL | 12.3 µg/mL (≈ 29.3 µM) |
| Nc1nc(N)nc(Nc2ccc([As]3SCC(CO)S3)cc2)n1 (stereo unspecified) [MELARSOPROL] | – | – | 0.00095 µg/mL | – | – |
